# According to PubChem BioAssay (NCI):
#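 Compound exposure: 48 hours, 5 concentrations, 96-well plates. At the GI50, growth is halved. TGI is the concentration that stops growth completely.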
# How the values were obtained:
# Experiment in all cases: NCI anticancer screen, dose series, 48 h
# SK-MEL-5 melanoma = test system: SK-MEL-5 melanoma
# SK-MEL-2 melanoma = test system: SK-MEL-2 melanoma
# NCI-H522 lung = test system: NCI-H522 lung
# A498 renal = test system: A498 renal
# SK-MEL-28 melanoma = test system: SK-MEL-28 melanoma
# NCI-H226 lung = test system: NCI-H226 lung
# MCF7 breast = test system: MCF7 breast
# PC-3 prostate = test system: PC-3 prostate
# RPMI-8226 leukemia = test system: RPMI-8226 leukemia
# HCC-2998 colon = test system: HCC-2998 colon
# RXF 393 renal = test system: RXF 393 renal
# CCRF-CEM leukemia = test system: CCRF-CEM leukemia
# SK-OV-3 ovarian = test system: SK-OV-3 ovarian
# SF-295 CNS = test system: SF-295 CNS
# SNB-19 CNS = test system: SNB-19 CNS
# HS 578T breast = test system: HS 578T breast
# SR leukemia = test system: SR leukemia
# HCT-15 colon = test system: HCT-15 colon
# COLO 205 colon = test system: COLO 205 colon
# OVCAR-8 ovarian = test system: OVCAR-8 ovarian
# MDA-MB-231 breast = test system: MDA-MB-231 breast
# MOLT-4 leukemia = test system: MOLT-4 leukemia
# HL-60(TB) leukemia = test system: HL-60(TB) leukemia
# TK-10 renal = test system: TK-10 renal
# M14 melanoma = test system: M14 melanoma
# HCT-116 colon = test system: HCT-116 colon
# OVCAR-5 ovarian = test system: OVCAR-5 ovarian
# CAKI-1 renal = test system: CAKI-1 renal
# NCI/ADR-RES ovarian = test system: NCI/ADR-RES ovarian
# NCI-H460 lung = test system: NCI-H460 lung
# HOP-92 NSCLC = test system: HOP-92 NSCLC
# K-562 leukemia = test system: K-562 leukemia
# HT29 colon = test system: HT29 colon
# U251 CNS = test system: U251 CNS
# SF-268 CNS = test system: SF-268 CNS
# UO-31 renal = test system: UO-31 renal
# LOX IMVI melanoma = test system: LOX IMVI melanoma
# MALME-3M melanoma = test system: MALME-3M melanoma
# 786-0 renal = test system: 786-0 renal
# BT-549 breast = test system: BT-549 breast
# MDA-MB-435 = test system: MDA-MB-435
# OVCAR-3 ovarian = test system: OVCAR-3 ovarian
# UACC-257 melanoma = test system: UACC-257 melanoma
# KM12 colon = test system: KM12 colon
# NCI-H23 lung = test system: NCI-H23 lung
# ACHN renal = test system: ACHN renal
# UACC-62 melanoma = test system: UACC-62 melanoma
# OVCAR-4 ovarian = test system: OVCAR-4 ovarian
# HOP-62 NSCLC = test system: HOP-62 NSCLC
# SN12C renal = test system: SN12C renal
# DU-145 prostate = test system: DU-145 prostate
# IGROV1 ovarian = test system: IGROV1 ovarian
# EKVX NSCLC = test system: EKVX NSCLC
# SNB-75 CNS = test system: SNB-75 CNS
# T-47D breast = test system: T-47D breast
# SF-539 CNS = test system: SF-539 CNS
# SW-620 colon = test system: SW-620 colon
# A549 NSCLC = test system: A549 NSCLC
smiles,measurement,setting,value
C[C@]12CC[C@@H]3c4cc(-c5ccc(F)cc5)c(O)cc4CC[C@H]3[C@@H]1CC[C@@H]2O,GI50,SK-MEL-5 melanoma,9.41 µM
same,TGI,SK-MEL-5 melanoma,21.2 µM
same,GI50,SK-MEL-2 melanoma,5.81 µM
same,TGI,SK-MEL-2 melanoma,19.8 µM
same,GI50,NCI-H522 lung,3.79 µM
same,TGI,NCI-H522 lung,16.7 µM
same,GI50,A498 renal,3.39 µM
same,TGI,A498 renal,12.2 µM
same,GI50,SK-MEL-28 melanoma,14.2 µM
same,TGI,SK-MEL-28 melanoma,28 µM
same,GI50,NCI-H226 lung,10.3 µM
same,TGI,NCI-H226 lung,30.4 µM
same,GI50,MCF7 breast,5.21 µM
same,TGI,MCF7 breast,18.6 µM
same,GI50,PC-3 prostate,4.63 µM
same,TGI,PC-3 prostate,21.8 µM
same,GI50,RPMI-8226 leukemia,2.78 µM
same,TGI,RPMI-8226 leukemia,16.5 µM
same,GI50,HCC-2998 colon,16.8 µM
same,TGI,HCC-2998 colon,38.2 µM
same,GI50,RXF 393 renal,2.66 µM
same,TGI,RXF 393 renal,5.9 µM
same,GI50,CCRF-CEM leukemia,6.93 µM
same,TGI,CCRF-CEM leukemia,29.3 µM
same,GI50,SK-OV-3 ovarian,13.3 µM
same,TGI,SK-OV-3 ovarian,28.2 µM
same,GI50,SF-295 CNS,3.98 µM
same,TGI,SF-295 CNS,17.6 µM
same,GI50,SNB-19 CNS,9.61 µM
same,TGI,SNB-19 CNS,22.6 µM
same,GI50,HS 578T breast,4.84 µM
same,TGI,HS 578T breast,22.4 µM
same,GI50,SR leukemia,4.75 µM
same,TGI,SR leukemia,24.5 µM
same,GI50,HCT-15 colon,5.61 µM
same,TGI,HCT-15 colon,18.8 µM
same,GI50,COLO 205 colon,4.83 µM
same,TGI,COLO 205 colon,23.9 µM
same,GI50,OVCAR-8 ovarian,8.02 µM
same,TGI,OVCAR-8 ovarian,37.3 µM
same,GI50,MDA-MB-231 breast,7.86 µM
same,TGI,MDA-MB-231 breast,23.9 µM
same,GI50,MOLT-4 leukemia,4.88 µM
same,TGI,MOLT-4 leukemia,18.3 µM
same,GI50,HL-60(TB) leukemia,8.17 µM
same,TGI,HL-60(TB) leukemia,28.5 µM
same,TGI,TK-10 renal,21.7 µM
same,GI50,M14 melanoma,14.2 µM
same,TGI,M14 melanoma,34.5 µM
same,GI50,HCT-116 colon,5.65 µM
same,TGI,HCT-116 colon,22 µM
same,GI50,OVCAR-5 ovarian,19.1 µM
same,TGI,OVCAR-5 ovarian,39.2 µM
same,GI50,CAKI-1 renal,6.47 µM
same,TGI,CAKI-1 renal,21.5 µM
same,GI50,NCI/ADR-RES ovarian,6.95 µM
same,TGI,NCI/ADR-RES ovarian,65.9 µM
same,GI50,NCI-H460 lung,4.26 µM
same,TGI,NCI-H460 lung,19.6 µM
same,GI50,HOP-92 NSCLC,10.6 µM
same,TGI,HOP-92 NSCLC,23.6 µM
same,GI50,K-562 leukemia,3.06 µM
same,TGI,K-562 leukemia,18.3 µM
same,GI50,HT29 colon,6.54 µM
same,TGI,HT29 colon,20.2 µM
same,GI50,U251 CNS,5.54 µM
same,TGI,U251 CNS,17.9 µM
same,GI50,SF-268 CNS,7.29 µM
same,TGI,SF-268 CNS,27.8 µM
same,GI50,UO-31 renal,7.01 µM
same,TGI,UO-31 renal,21.6 µM
same,GI50,LOX IMVI melanoma,9.88 µM
same,TGI,LOX IMVI melanoma,22.1 µM
same,GI50,MALME-3M melanoma,10.1 µM
same,TGI,MALME-3M melanoma,22 µM
same,GI50,786-0 renal,11.9 µM
same,TGI,786-0 renal,27.7 µM
same,GI50,BT-549 breast,6.51 µM
same,TGI,BT-549 breast,23.3 µM
same,GI50,MDA-MB-435,11.8 µM
same,TGI,MDA-MB-435,28.6 µM
same,GI50,OVCAR-3 ovarian,4.02 µM
same,TGI,OVCAR-3 ovarian,20.9 µM
same,GI50,UACC-257 melanoma,15.3 µM
same,TGI,UACC-257 melanoma,29.6 µM
same,GI50,KM12 colon,6.49 µM
same,TGI,KM12 colon,20.9 µM
same,GI50,NCI-H23 lung,13.8 µM
same,TGI,NCI-H23 lung,37.8 µM
same,GI50,ACHN renal,5.86 µM
same,TGI,ACHN renal,18.9 µM
same,GI50,UACC-62 melanoma,12 µM
same,TGI,UACC-62 melanoma,25.2 µM
same,GI50,OVCAR-4 ovarian,4.04 µM
same,TGI,OVCAR-4 ovarian,17.1 µM
same,GI50,HOP-62 NSCLC,11.2 µM
same,TGI,HOP-62 NSCLC,28.3 µM
same,GI50,SN12C renal,10 µM
same,TGI,SN12C renal,22.4 µM
same,GI50,DU-145 prostate,12.5 µM
same,TGI,DU-145 prostate,25 µM
same,GI50,IGROV1 ovarian,6 µM
same,TGI,IGROV1 ovarian,20.4 µM
same,GI50,EKVX NSCLC,6.32 µM
same,TGI,EKVX NSCLC,20.3 µM
same,GI50,SNB-75 CNS,2.06 µM
same,TGI,SNB-75 CNS,8.38 µM
same,GI50,T-47D breast,4.52 µM
same,TGI,T-47D breast,24.6 µM
same,GI50,SF-539 CNS,9.42 µM
same,TGI,SF-539 CNS,22.9 µM
same,GI50,SW-620 colon,10.1 µM
same,TGI,SW-620 colon,21.8 µM
same,GI50,A549 NSCLC,6.17 µM
same,TGI,A549 NSCLC,22.9 µM
